Laboratory results taken from US8765786B2, “1-substituted indazole derivative” (Dainippon Sumitomo Pharma Co., Ltd., priority 2012, dated 2014).
pIC50: −log10 of the molar value.

Legend:
human α7 nAChR = molecular target: T1, human α7 nAChR (Homo sapiens, UniProt P36544); experiment: Evaluation of PAM activity with human α7 nACh receptor stably expressing cells (aequorin luminescence, FDSS7000); type: cell-based; conditions: test compound 10 μmol/L; ACh added at EC20; ratio of RLU (Max-Min) of test wells to control wells; read-out: α7PAM (%) @ 10 μmol/L
T1 construct: expressed in transfected cells; host or cells: GH4C1 cells derived from rat pituitary (ATCC CCL-82.2)
T1 sequence (P36544 23-502): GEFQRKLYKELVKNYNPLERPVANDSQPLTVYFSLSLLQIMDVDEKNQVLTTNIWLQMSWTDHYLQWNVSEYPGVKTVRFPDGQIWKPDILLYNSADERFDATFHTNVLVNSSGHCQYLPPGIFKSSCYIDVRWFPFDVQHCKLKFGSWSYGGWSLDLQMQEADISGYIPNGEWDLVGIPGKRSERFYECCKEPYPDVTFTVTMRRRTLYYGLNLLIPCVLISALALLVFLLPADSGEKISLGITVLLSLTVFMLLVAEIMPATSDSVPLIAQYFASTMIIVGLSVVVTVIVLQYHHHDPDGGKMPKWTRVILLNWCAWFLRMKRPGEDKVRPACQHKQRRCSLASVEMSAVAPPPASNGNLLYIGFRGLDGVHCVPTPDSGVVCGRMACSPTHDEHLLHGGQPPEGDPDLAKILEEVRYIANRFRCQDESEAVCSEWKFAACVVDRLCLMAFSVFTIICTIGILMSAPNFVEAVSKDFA
Method in brief: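 PAM activity defined as RLU (Max-Min) of compound wells over control wells, from 465 nm aequorin luminescence tracked 138 s after ACh challenge. Host: GH4C1 (rat pituitary) stably co-expressing human α7 nAChR and aequorin, pre-loaded 4 h with 4 μmol/L luminescent substrate.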

Slc: Wistar rats = experiment: Y-shaped maze test in rats, scopolamine-induced cognitive impairment; type: in vivo; conditions: 0.6 mg/kg scopolamine HBr s.c.
Description: In Y-maze test, 0.6 mg/kg scopolamine HBr (cat#S0929, Sigma Aldrich, Japan) can be subcutaneously administered to Slc: Wistar rats (280 g to 300 g, male, Japan SLC) to cause cognitive impairment and decrease the percentage of alternation behavior. According to the test mechanism, the present compounds were treated prior to the administration of scopolamine, and the improvement effect on cognitive impairment was evaluated.

Slc: ddY mice = experiment: Novel object recognition test in mice (mORT); type: in vivo; conditions: for minimum effective dose: administered prior to 1st trial, 2nd trial 24 hours later; for efficacy at higher doses: dose of 0.3 mg/kg, 1.0 mg/kg or 3 mg/kg
Description: Slc: ddY mice (25 g to 30 g, male, Japan SLC) can be used in the novel object recognition test wherein the interval between the 1st trial (training) and the 2nd trial (test) correlates with the memory loss for the objects used in the 1st trial, and a significant memory-loss is observed when the 2nd trial is performed 24 hours after the 1st trial. According to the test mechanism, the present compounds were administered prior to the 1st trial, and the enhancement effect on memory in the 2nd trial was evaluated.

[1] = molecular target: T2, hERG (human ether-a-go-go) potassium current (Homo sapiens, UniProt Q12809); experiment: hERG inhibition test (whole-cell patch clamp, QPatch HT, CHO cells); type: cell-based; conditions: room temperature
T2 construct: expressed in transfected cells; host or cells: CHO cells
T2 sequence (Q12809 whole entry): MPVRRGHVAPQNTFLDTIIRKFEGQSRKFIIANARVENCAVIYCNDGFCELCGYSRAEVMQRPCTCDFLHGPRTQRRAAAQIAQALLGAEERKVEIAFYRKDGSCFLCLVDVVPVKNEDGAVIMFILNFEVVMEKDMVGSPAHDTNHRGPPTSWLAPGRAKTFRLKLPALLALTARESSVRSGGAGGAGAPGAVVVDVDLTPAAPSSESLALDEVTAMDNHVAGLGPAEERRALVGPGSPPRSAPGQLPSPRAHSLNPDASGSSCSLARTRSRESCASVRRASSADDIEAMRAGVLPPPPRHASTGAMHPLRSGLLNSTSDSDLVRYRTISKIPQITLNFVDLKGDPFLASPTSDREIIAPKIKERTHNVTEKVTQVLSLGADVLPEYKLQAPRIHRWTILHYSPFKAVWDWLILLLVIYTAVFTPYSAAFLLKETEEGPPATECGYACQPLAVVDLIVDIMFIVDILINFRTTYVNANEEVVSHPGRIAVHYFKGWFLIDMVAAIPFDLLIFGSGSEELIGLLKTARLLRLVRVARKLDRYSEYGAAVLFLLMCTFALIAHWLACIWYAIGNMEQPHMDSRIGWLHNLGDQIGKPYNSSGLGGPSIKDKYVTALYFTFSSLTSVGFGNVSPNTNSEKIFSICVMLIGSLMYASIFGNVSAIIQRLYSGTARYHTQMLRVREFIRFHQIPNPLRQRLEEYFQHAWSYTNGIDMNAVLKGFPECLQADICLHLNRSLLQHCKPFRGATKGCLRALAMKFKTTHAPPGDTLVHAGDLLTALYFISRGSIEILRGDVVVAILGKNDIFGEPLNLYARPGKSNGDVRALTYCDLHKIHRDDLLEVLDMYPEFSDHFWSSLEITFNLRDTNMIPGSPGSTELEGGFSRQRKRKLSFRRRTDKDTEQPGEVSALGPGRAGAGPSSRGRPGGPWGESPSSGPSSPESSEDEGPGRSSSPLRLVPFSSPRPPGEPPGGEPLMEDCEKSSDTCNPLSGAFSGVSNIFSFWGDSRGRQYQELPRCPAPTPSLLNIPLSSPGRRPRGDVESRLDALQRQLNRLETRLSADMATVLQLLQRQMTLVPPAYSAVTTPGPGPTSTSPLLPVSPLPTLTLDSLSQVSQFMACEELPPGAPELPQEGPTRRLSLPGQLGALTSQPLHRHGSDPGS
Description: The hERG (human ether-a-go-go) potassium current in CHO cells which stably express hERG gene was recorded by whole-cell patch clamping technique using an automated patch clamp system, QPatch HT (Sophion Bioscience A/S). Inducing the hERG current, the membrane potential was held at −80 mV in voltage clamp mode, and then depolarized to −50 mV for 20 msec and then +20 mV for 5 sec. Then, the membrane potential was repolarized to −50 mV for 5 sec and the tail current amplitude was measured. The stimulation was given at a frequency of every 15 seconds, and the experiment was carried out at room temperature (22±2° C.) The compound was cumulatively administered to each cell in 4 concentrations, wherein the administration was done over 5 minutes in each concentration. The inhibition percentage of the inhibited current was calculated by comparing the current intensities before and after the compound was given in each concentration. According to Hill equation, each 50% inhibitory concentration was calculated (IC50 [μmol/L]). The test solutions used herein were as follows: extracellular solution (mmol/L): 2 CaCl2, 1 MgCl2, 10 HEPES, 4 KCl, 145 NaCl, 10 glucose,
intracellular solution (mmol/L): […], 1.8 MgCl2, 10 HEPES, 31 KOH, 10 EGTA, 120 KCl, 4 ATP

Rat PK test = type: in vivo; conditions: plasma, rats, intravenous and oral administration
Description: The present compound was administered intravenously in saline solution or orally in methylcellulose solution to 7 weeks old rats, and their blood was collected according to the following schedule:
(intravenous administration) 5 minutes, 15 minutes, 30 minutes, 1 hour, 2 hours, 4 hours, 6 hours and 24 hours after the administration
(oral administration) 15 minutes, 30 minutes, 1 hour, 2 hours, 4 hours, 6 hours and 24 hours after the administration
The collected blood was centrifuged at 3000 rpm for 10 minutes in a refrigerated centrifuge set at 4° C. The obtained plasma was measured with a HPLC to give a time curve of plasma level, thereby calculating the pharmacokinetic parameters.

[2] = Measurement of brain penetration; type: in vivo; conditions: LC-MS/MS of plasma and brain homogenates; read-out: concentration ratio of the brain to the plasma
From the text: The plasma and brain homogenates were deproteinized with methanol and then centrifuged. The supernatant was filtered, and the obtained sample was quantified with LC-MS/MS to calculate the concentration of the plasma and brain.

[3] = Measurement of protein binding ratio (equilibrium dialysis); type: in vitro ADME, human

Structure (SMILES) | activity at 10 µM (human α7 nAChR) [%] | dose from which a tendency to improve cognitive function was shown (Slc: Wistar rats) [mg/kg] | dose at which efficacy was shown (Slc: ddY mice) [mg/kg] | pIC50 [1] | bioavailability (Rat PK test) [%] | Kp [2] | dose from which cognitive function was significantly improved (Slc: Wistar rats) [mg/kg] | minimum effective dose (Slc: ddY mice) [mg/kg] | efficacy at higher doses (Slc: ddY mice) | protein binding ratio in the brain ([3]; brain) [%] | protein binding ratio in the plasma ([3]; plasma) [%]
CCc1ccc2c(c1)c(OC(C)C)nn2C1CCN(C(=O)NC2CCOCC2)CC1 [Example 63, 4-(5-ethyl-3-isopropoxy-1H-indazol-1-yl)-N-(tetrahydro-2H-pyran-4-yl)piperidine-1-carboxamide] | 358 | 0.3 | 3 | < 5.00 | – | – | – | – | – | – | –
CO[C@H]1CC[C@H](NC(=O)N2CCC(n3ncc4cc(C(F)(F)F)ccc43)CC2)CC1 [Example 163, N-(trans-4-methoxycyclohexyl)-4-[5-(trifluoromethyl)-1H-indazol-1-yl]piperidine-1-carboxamide] | 318 | – | – | – | 41 | 2.01 | – | – | – | – | –
O=C(NC1CCOCC1)N1CCC(n2ncc3cc(OC(F)(F)F)ccc32)CC1 [Example 227, N-(tetrahydro-2H-pyran-4-yl)-4-[5-(trifluoromethoxy)-1H-indazol-1-yl]piperidine-1-carboxamide] | 768 | – | – | – | 69 | 1.92 | – | – | – | – | –
CO[C@H]1CC[C@H](NC(=O)N2CCC(n3ncc4cc(C)ccc43)CC2)CC1 [Example 1, N-(trans-4-methoxycyclohexyl)-4-(5-methyl-1H-indazol-1-yl)piperidine-1-carboxamide] | – | – | – | 4.07 | 41 | 1.27 | 0.3 | 0.1 | efficacy did not decrease | 91.9 | 84.7
CO[C@H]1CC[C@H](NC(=O)N2CCC(n3ncc4cc(C5CC5)ccc43)CC2)CC1 [Example 74, 4-(5-cyclopropyl-1H-indazol-1-yl)-N-(trans-4-methoxycyclohexyl)piperidine-1-carboxamide] | – | – | – | 4.88 | – | – | 0.3 | 0.1 | efficacy did not decrease | – | –
